What all share (type): biochemical
The target of test [1] is T1, 1-deoxy-D-xylulose-5-phosphate synthase (paDXPS) (Pseudomonas aeruginosa, UniProt B7V7R4, DEL206-245/INS205GGGGGG).
T1 construct: gene dxs; truncated paDXPS; residues 206 to 245 replaced with a six glycine unit
In words: co-crystal structure ([…] Å); coupled spectrophotometric inhibition assay.

Test [2] deals with T2, 1-deoxy-D-xylulose-5-phosphate synthase (kpDXPS) (Klebsiella pneumoniae, UniProt A6T5F3, DEL197-240/INS196GGGGGG).
T2 construct: gene dxs; truncated kpDXPS; residues 197 to 240 replaced with a six glycine unit
T2 sequence (A6T5F3 whole entry, stated change not applied, the tested form may be a part): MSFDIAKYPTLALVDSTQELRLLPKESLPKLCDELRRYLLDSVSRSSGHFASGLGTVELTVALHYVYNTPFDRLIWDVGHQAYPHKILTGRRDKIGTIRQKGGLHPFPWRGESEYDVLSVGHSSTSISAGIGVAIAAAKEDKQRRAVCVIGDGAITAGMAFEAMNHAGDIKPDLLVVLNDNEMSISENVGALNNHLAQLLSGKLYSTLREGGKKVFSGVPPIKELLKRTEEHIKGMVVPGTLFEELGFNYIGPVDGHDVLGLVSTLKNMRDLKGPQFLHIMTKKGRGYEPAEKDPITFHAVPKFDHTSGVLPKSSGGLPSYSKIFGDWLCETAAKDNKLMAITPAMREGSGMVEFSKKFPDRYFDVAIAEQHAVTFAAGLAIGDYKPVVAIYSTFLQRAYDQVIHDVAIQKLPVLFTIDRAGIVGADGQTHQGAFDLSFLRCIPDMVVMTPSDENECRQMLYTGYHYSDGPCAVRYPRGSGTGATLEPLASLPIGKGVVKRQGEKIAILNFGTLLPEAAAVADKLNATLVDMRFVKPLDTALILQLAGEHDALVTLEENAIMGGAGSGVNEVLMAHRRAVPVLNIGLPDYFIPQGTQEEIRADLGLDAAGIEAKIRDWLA
The test can be described thus: IspC-coupled spectrophotometric assay.

In test [3] the target is T3, 1-deoxy-D-xylulose-5-phosphate synthase (paDXPS) (Pseudomonas aeruginosa, UniProt B7V7R4, DEL206-245/INS205GGGGGG).
T3 construct: gene dxs
T3 sequence (B7V7R4 1-627 INS205GGGGGG/DEL206-245): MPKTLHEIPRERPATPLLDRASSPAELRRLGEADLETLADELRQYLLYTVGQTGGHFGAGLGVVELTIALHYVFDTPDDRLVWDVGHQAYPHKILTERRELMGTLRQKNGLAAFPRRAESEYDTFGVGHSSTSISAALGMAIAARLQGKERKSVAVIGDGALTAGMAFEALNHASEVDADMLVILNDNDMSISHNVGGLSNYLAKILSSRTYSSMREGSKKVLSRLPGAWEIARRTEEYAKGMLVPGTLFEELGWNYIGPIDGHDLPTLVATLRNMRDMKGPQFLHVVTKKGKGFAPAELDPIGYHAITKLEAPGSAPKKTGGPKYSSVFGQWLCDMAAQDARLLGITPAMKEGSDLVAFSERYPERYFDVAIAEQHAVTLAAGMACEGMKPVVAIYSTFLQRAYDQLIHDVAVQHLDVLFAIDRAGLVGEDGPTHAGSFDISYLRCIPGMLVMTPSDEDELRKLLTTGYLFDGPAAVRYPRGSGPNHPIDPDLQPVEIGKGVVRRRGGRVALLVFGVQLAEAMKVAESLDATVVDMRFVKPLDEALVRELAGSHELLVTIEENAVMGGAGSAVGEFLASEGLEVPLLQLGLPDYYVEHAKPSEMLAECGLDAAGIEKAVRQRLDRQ
In words: IspC-coupled spectrophotometric assay; mode-of-inhibition study.

This note sets out measurements from publication PMC10504544, “1-deoxy-D-xylulose-5-phosphate synthase from Pseudomonas aeruginosa and Klebsiella pneumoniae reveals conformational changes upon cofactor binding” (The Journal of Biological Chemistry, 2023).

Consider `Cc1ncc(Cc2cccc(CCO)c2)c(N)n1` [2-{3-[(4-Amino-2-Methylpyrimidin-5-Yl)methyl]phenyl}ethanol], for which the IC50 (as a rule, the midpoint of a concentration-inhibition curve) in test [1] was found to be 197 µM; in test [2] it was 94 µM.

`O=C(O)C(=O)CF` [fluoropyruvate] gave an IC50 in test [3] of around 27 µM.
